Experimental data published in patent publication US9096492B2, “Hydrated N-fullerene amino acids, method for producing the latter, and pharmaceutical compositions on the basis thereof” (priority 2011, dated 2015).

Columns and labels:
[1] = test system: A/Aichi/2/69 (H3N2) influenza virus; assay: Induced influenza pneumonia in mice; conditions: for Average lifetime (days) / Death rate (%) / Percent death protection (%) / Survival (survivors/total): observation day 16
[2] = test system: Ehrlich ascites carcinoma; assay: Ehrlich ascites carcinoma in white mice, body weight dynamics
[3] = intraperitoneally 100 mg/kg/day

## N-fullerene tris(δ-aminocaproic acid) hydrate [Agent 1]
[1]; intramuscularly 100 mg/kg/day, day 13 post infection
  Percent body weight change: +82%
[1]; intramuscularly 100 mg/kg/day
  Average lifetime (days): 13.5 (1-8 d, 1-9 d) days
  Death rate (%): 20%
  Percent death protection (%): 70%
  Survival (survivors/total): 8/10
[1]; intramuscularly 200 mg/kg/day, day 1 post infection
  Percent body weight change: +11%
[1]; intramuscularly 200 mg/kg/day, day 2 post infection
  Percent body weight change: +20%
[1]; intramuscularly 200 mg/kg/day, day 3 post infection
  Percent body weight change: +26%
[1]; intramuscularly 200 mg/kg/day, day 4 post infection
  Percent body weight change: +35%
[1]; intramuscularly 200 mg/kg/day, day 5 post infection
  Percent body weight change: +39%
[1]; intramuscularly 200 mg/kg/day, day 7 post infection
  Percent body weight change: +43%
[1]; intramuscularly 200 mg/kg/day, day 9 post infection
  Percent body weight change: +51%
[1]; intramuscularly 200 mg/kg/day, day 11 post infection
  Percent body weight change: +62%
[1]; intramuscularly 200 mg/kg/day, day 13 post infection
  Percent body weight change: +70%
[1]; intramuscularly 200 mg/kg/day
  Average lifetime (days): 14.4 (1-10 d) days
  Death rate (%): 10%
  Percent death protection (%): 80%
  Survival (survivors/total): 9/10
[1]; intraperitoneal, 200 mg/kg/day
  tolerability in infected mice: toxic
[1]; intraperitoneally 50 mg/kg/day, day 1 post infection
  Percent body weight change: +11%
[1]; intraperitoneally 50 mg/kg/day, day 2 post infection
  Percent body weight change: +17%
[1]; intraperitoneally 50 mg/kg/day, day 3 post infection
  Percent body weight change: +22%
[1]; intraperitoneally 50 mg/kg/day, day 4 post infection
  Percent body weight change: +25%
[1]; intraperitoneally 50 mg/kg/day, day 5 post infection
  Percent body weight change: +28%
[1]; intraperitoneally 50 mg/kg/day, day 7 post infection
  Percent body weight change: +35%
[1]; intraperitoneally 50 mg/kg/day, day 9 post infection
  Percent body weight change: +41%
[1]; intraperitoneally 50 mg/kg/day, day 11 post infection
  Percent body weight change: +67%
[1]; intraperitoneally 50 mg/kg/day, day 13 post infection
  Percent body weight change: +77%
[1]; intraperitoneally 50 mg/kg/day
  Average lifetime (days): 11.5 (1-5 d., 1-7 d., 3-11 d.) days
  Death rate (%): 50%
  Percent death protection (%): 40%
  Survival (survivors/total): 5/10
[1]; intraperitoneally 100 mg/kg/day, day 1 post infection
  Percent body weight change: +9%
[1]; intraperitoneally 100 mg/kg/day, day 2 post infection
  Percent body weight change: +15%
[1]; intraperitoneally 100 mg/kg/day, day 3 post infection
  Percent body weight change: +19%
[1]; intraperitoneally 100 mg/kg/day, day 4 post infection
  Percent body weight change: +21%
[1]; intraperitoneally 100 mg/kg/day, day 5 post infection
  Percent body weight change: +21%
[1]; intraperitoneally 100 mg/kg/day, day 7 post infection
  Percent body weight change: +27%
[1]; intraperitoneally 100 mg/kg/day, day 9 post infection
  Percent body weight change: +37%
[1]; intraperitoneally 100 mg/kg/day, day 11 post infection
  Percent body weight change: +50%
[1]; intraperitoneally 100 mg/kg/day, day 13 post infection
  Percent body weight change: +82%
[1]; [3]
  Average lifetime (days): 11.0 (3-7 d., 1-8 d., 1-11 d) days
  Death rate (%): 50%
  Percent death protection (%): 40%
  Survival (survivors/total): 5/10
[1]; orally 100 mg/kg/day, day 1 post infection
  Percent body weight change: +12%
[1]; orally 100 mg/kg/day, day 2 post infection
  Percent body weight change: +17%
[1]; orally 100 mg/kg/day, day 3 post infection
  Percent body weight change: +23%
[1]; orally 100 mg/kg/day, day 4 post infection
  Percent body weight change: +25%
[1]; orally 100 mg/kg/day, day 5 post infection
  Percent body weight change: +24%
[1]; orally 100 mg/kg/day, day 7 post infection
  Percent body weight change: +21%
[1]; orally 100 mg/kg/day, day 9 post infection
  Percent body weight change: +23%
[1]; orally 100 mg/kg/day, day 11 post infection
  Percent body weight change: +34%
[1]; orally 100 mg/kg/day, day 13 post infection
  Percent body weight change: +44%
[1]; orally 100 mg/kg/day
  Average lifetime (days): 10.4 (2-7 d., 1-9 d., 1-10 d) days
  Death rate (%): 50%
  Percent death protection (%): 40%
  Survival (survivors/total): 5/10
[1]; orally 200 mg/kg/day, day 1 post infection
  Percent body weight change: +15%
[1]; orally 200 mg/kg/day, day 2 post infection
  Percent body weight change: +20%
[1]; orally 200 mg/kg/day, day 3 post infection
  Percent body weight change: +23%
[1]; orally 200 mg/kg/day, day 4 post infection
  Percent body weight change: +25%
[1]; orally 200 mg/kg/day, day 5 post infection
  Percent body weight change: +24%
[1]; orally 200 mg/kg/day, day 7 post infection
  Percent body weight change: +22%
[1]; orally 200 mg/kg/day, day 9 post infection
  Percent body weight change: +25%
[1]; orally 200 mg/kg/day, day 11 post infection
  Percent body weight change: +45%
[1]; orally 200 mg/kg/day, day 13 post infection
  Percent body weight change: +57%
[1]; orally 200 mg/kg/day
  Average lifetime (days): 13.0 (1-7 d., 1-10 d., 1-11 d) days
  Death rate (%): 30%
  Percent death protection (%): 60%
  Survival (survivors/total): 7/10
[2]; day 1 post tumor transplantation
  Animal body weight: 18.6 ± 2.3 g
[2]; day 3 post tumor transplantation
  Animal body weight: 18.8 ± 2.2 g
[2]; day 5 post tumor transplantation
  Animal body weight: 18.8 ± 1.9 g
[2]; day 8 post tumor transplantation
  Animal body weight: 19.4 ± 1.7 g
[2]; day 10 post tumor transplantation
  Animal body weight: 19.9 ± 1.7 g
[2]; day 13 post tumor transplantation
  Animal body weight: 20.4 ± 1.5 g
[2]; day 15 post tumor transplantation
  Animal body weight: 20.4 ± 1.4 g
